PubChem BioAssay (NCI)
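Briefly, cells in 96-well plates were exposed to five compound concentrations for 48 h, and endpoints were estimated by linear interpolation. TGI marks complete inhibition of growth.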

What was measured:
Test in all cases: DTP human tumour cell line panel, 48 h
COLO 205 colon = test system: COLO 205 colon
SNB-78 CNS = test system: SNB-78 CNS
OVCAR-4 ovarian = test system: OVCAR-4 ovarian
SK-MEL-2 melanoma = test system: SK-MEL-2 melanoma
DLD-1 colon = test system: DLD-1 colon
DMS 114 small cell lung = test system: DMS 114 small cell lung
DMS 273 small cell lung = test system: DMS 273 small cell lung
NCI-H522 lung = test system: NCI-H522 lung
SNB-19 CNS = test system: SNB-19 CNS
IGROV1 ovarian = test system: IGROV1 ovarian
KM20L2 colon = test system: KM20L2 colon
BT-549 breast = test system: BT-549 breast
MDA-MB-435 = test system: MDA-MB-435

| SMILES | TGI (COLO 205 colon) [µM] | TGI (SNB-78 CNS) [µM] | TGI (OVCAR-4 ovarian) [µM] | TGI (SK-MEL-2 melanoma) [µM] | TGI (DLD-1 colon) [µM] | TGI (DMS 114 small cell lung) [µM] | TGI (DMS 273 small cell lung) [µM] | TGI (NCI-H522 lung) [µM] | TGI (SNB-19 CNS) [µM] | TGI (IGROV1 ovarian) [µM] | TGI (KM20L2 colon) [µM] | TGI (BT-549 breast) [µM] | TGI (MDA-MB-435) [µM] |
| --- | --- | --- | --- | --- | --- | --- | --- | --- | --- | --- | --- | --- | --- |
| Cn1cnc([N+](=O)[O-])c1Sc1nnc(-c2ccc(Cl)cc2)n1C | 24.3 | 31.9 | 27.1 | 34.8 | 26.3 | 30.5 | 36 | 15.6 | > 100 | 32.7 | – | – | – |
| Cc1c2cc[n+](C)cc2c(C)c2c1[nH]c1ccc(OC(C)(C)C)cc12 | > 100 | > 100 | > 100 | > 100 | > 100 | > 100 | > 100 | > 100 | – | > 100 | – | – | – |
| CCC(/C(=N/NC(=O)C[N+](C)(C)C)c1ccccc1)C1OC(=O)c2ccccc21 (configuration not stated) | > 100 | > 100 | > 100 | – | – | > 100 | > 100 | > 100 | > 100 | > 100 | > 100 | – | – |
| OC[C@H](O)[C@@H](OCc1ccccc1)[C@H](NCc1ccccc1)c1cccs1 | > 100 | – | > 100 | > 100 | – | – | – | > 100 | > 100 | > 100 | – | > 100 | > 100 |
| COc1ccc(NC(=O)CC2SC(=Nc3ccc(Cl)cc3C)NC2=O)c([N+](=O)[O-])c1 (configuration not stated) | – | > 100 | > 100 | > 100 | > 100 | > 100 | > 100 | > 100 | > 100 | > 100 | > 100 | – | – |
| CCCCCCCCC/C=C1/CC(CO)(COC(=O)C2CCCCC2)OC1=O (configuration not stated) | > 100 | – | > 100 | > 100 | – | – | – | > 100 | > 100 | > 100 | – | > 100 | > 100 |
| Nc1ccc2ncc(NCc3ccc(F)cc3)nc2c1 | > 100 | > 100 | > 100 | > 100 | > 100 | > 100 | > 100 | > 100 | > 100 | – | > 100 | – | – |
| Cc1nc2cc3[nH]c4ccccc4c(=O)c3cc2s1 | > 100 | > 100 | > 100 | > 100 | – | > 100 | > 100 | > 100 | > 100 | > 100 | > 100 | – | – |
| COc1ccc(-c2oc(C=Nc3ccccc3)c([N+](=O)[O-])c2-c2ccc(OC)c(OC)c2)cc1OC | > 100 | > 100 | > 100 | – | > 100 | > 100 | > 100 | > 100 | > 100 | > 100 | > 100 | – | – |
| Cc1nc(-n2nc(-c3ccccc3)cc2-c2ccccc2)sc1C(/C=C\c1ccc([N+](=O)[O-])cc1)=N/NC(=S)NN | > 31.6 | > 100 | > 100 | 98.5 | 48.6 | > 100 | – | 42.3 | > 80 | > 72 | > 100 | 49.2 | > 100 |
| CCOP(=O)(OCC)C(Cc1cn(S(=O)(=O)c2ccc(C)cc2)cn1)C(=O)O (configuration not stated) | > 100 | – | > 100 | > 100 | – | – | – | > 100 | > 100 | > 100 | – | > 100 | > 100 |
| COc1cc2c(cc1OC)C/C(=N\O)c1cc(OC)c(OC)cc1/C=C\2 | 28.7 | – | > 100 | 44.6 | – | – | – | 4.8 | > 65.5 | 72.8 | – | 97.1 | 4.05 |
| COc1cc([C@@H]2c3cc4c(cc3[C@H](OC3OC5COC(C(C)C)OC5C(O)C3O)C3COC(=O)[C@@H]32)OCO4)cc(OC)c1OC (some centres not stated) | 14.6 | – | > 100 | 25.4 | – | – | – | 17.7 | > 40.6 | 12.5 | – | 20.2 | > 54.2 |
| O=C(C#Cc1ccccc1)Nc1ccccc1CC(c1c[nH]c2ccccc12)c1c[nH]c2ccccc12 | 44.2 | 97.6 | – | 51.9 | > 100 | – | 38.8 | 26.5 | > 100 | 98.8 | – | – | – |
| COC(=O)c1cc(NC(=O)Cn2c3ccccc3c3ccccc32)cn1C | > 100 | – | 74.9 | > 100 | – | – | – | > 100 | > 100 | > 100 | – | 71.3 | > 100 |
| CN(C)c1ccc(/C=C(\C#N)C(=O)c2ccccc2)cc1Br | > 100 | > 100 | > 100 | > 100 | > 100 | > 100 | > 100 | > 100 | > 100 | – | > 100 | – | – |
| O=C(O)Cn1cnc2c(=O)[nH]c(Nc3ccccc3)nc21 | > 100 | – | > 100 | > 100 | – | – | – | > 100 | > 100 | > 100 | – | > 100 | > 100 |
| CC(C)(C)c1ccc(OCCOc2ccc(C(C)(C)C)cc2NC=O)c(NC=O)c1 | 4.33 | – | 54.2 | 36.6 | – | – | – | 24.4 | > 100 | > 100 | – | 32.8 | 26.9 |
| CCOC1=C2N=C(C(CC)c3ccc(F)cc3)N=C2C(=O)c2ccccc21 (configuration not stated) | 47 | 89.8 | > 94.4 | 39.5 | > 30.4 | > 68.4 | > 72.1 | 76.7 | > 100 | > 100 | 50.7 | – | – |
| COC(=O)[C@@]1(Cc2ccc(OC(C)=O)cc2)Cc2cc3ccccc3n2N1 | 92.7 | – | > 100 | 52.2 | – | – | – | > 100 | > 100 | > 100 | – | > 100 | > 100 |
| Nc1nc2c(nnn2C2C=C(CO)C(O)C2O)c(=O)[nH]1 (configuration not stated) | > 100 | > 100 | > 100 | > 100 | > 100 | > 100 | > 100 | > 100 | > 100 | > 100 | > 100 | – | – |
